Laboratory results: article PMC4767141, “Discovery of Potent, Orally Bioavailable, Small-Molecule Inhibitors of WNT Signaling from a Cell-Based Pathway Screen” (Journal of Medicinal Chemistry, 2015)

How the values were obtained:
[1] = system: α1 (non-selective); test: CEREP binding panel; conditions: 10 μM, antagonist radioligand
[2] = molecular target: T1, CXCR2 (IL-8B) (h) (Homo sapiens, UniProt P25025); test: CEREP binding panel; conditions: agonist radioligand, read-out: % Inhibition of Control Specific Binding
T1 construct: purchased Millipore KinaseProfiler (kinases); Cerep (receptors and ion channels)

[3] = molecular target: T2, MT1 (ML1A) (h) (Homo sapiens, UniProt P48039); test: CEREP binding panel; conditions: agonist radioligand, read-out: % Inhibition of Control Specific Binding
T2 construct: purchased Millipore KinaseProfiler (kinases); Cerep (receptors and ion channels)

[4] = molecular target: T3, M3 (h) (Homo sapiens, UniProt P20309); test: CEREP binding panel; conditions: antagonist radioligand, read-out: % Inhibition of Control Specific Binding
T3 construct: purchased Millipore KinaseProfiler (kinases); Cerep (receptors and ion channels)

[5] = molecular target: T4, Y1 (h) (Homo sapiens, UniProt P25929); test: CEREP binding panel; conditions: agonist radioligand, read-out: % Inhibition of Control Specific Binding
T4 construct: purchased Millipore KinaseProfiler (kinases); Cerep (receptors and ion channels)

[6] = molecular target: T5, 5-HT2B (h) (Homo sapiens, UniProt P41595); test: CEREP binding panel; conditions: agonist radioligand, read-out: % Inhibition of Control Specific Binding
T5 construct: purchased Millipore KinaseProfiler (kinases); Cerep (receptors and ion channels)

[7] = molecular target: T6, 5-HT7 (h) (Homo sapiens, UniProt P34969); test: CEREP binding panel; conditions: agonist radioligand, read-out: % Inhibition of Control Specific Binding
T6 construct: purchased Millipore KinaseProfiler (kinases); Cerep (receptors and ion channels)

[8] = molecular target: T7, VPAC1 (VIP1) (h) (Homo sapiens, UniProt P32241); test: CEREP binding panel; conditions: agonist radioligand, read-out: % Inhibition of Control Specific Binding
T7 construct: purchased Millipore KinaseProfiler (kinases); Cerep (receptors and ion channels)

[9] = molecular target: T8, norepinephrine transporter (h) (Homo sapiens, UniProt P23975); test: CEREP binding panel; conditions: antagonist radioligand, read-out: % Inhibition of Control Specific Binding
T8 construct: purchased Millipore KinaseProfiler (kinases); Cerep (receptors and ion channels)
T8 sequence (P23975 whole entry): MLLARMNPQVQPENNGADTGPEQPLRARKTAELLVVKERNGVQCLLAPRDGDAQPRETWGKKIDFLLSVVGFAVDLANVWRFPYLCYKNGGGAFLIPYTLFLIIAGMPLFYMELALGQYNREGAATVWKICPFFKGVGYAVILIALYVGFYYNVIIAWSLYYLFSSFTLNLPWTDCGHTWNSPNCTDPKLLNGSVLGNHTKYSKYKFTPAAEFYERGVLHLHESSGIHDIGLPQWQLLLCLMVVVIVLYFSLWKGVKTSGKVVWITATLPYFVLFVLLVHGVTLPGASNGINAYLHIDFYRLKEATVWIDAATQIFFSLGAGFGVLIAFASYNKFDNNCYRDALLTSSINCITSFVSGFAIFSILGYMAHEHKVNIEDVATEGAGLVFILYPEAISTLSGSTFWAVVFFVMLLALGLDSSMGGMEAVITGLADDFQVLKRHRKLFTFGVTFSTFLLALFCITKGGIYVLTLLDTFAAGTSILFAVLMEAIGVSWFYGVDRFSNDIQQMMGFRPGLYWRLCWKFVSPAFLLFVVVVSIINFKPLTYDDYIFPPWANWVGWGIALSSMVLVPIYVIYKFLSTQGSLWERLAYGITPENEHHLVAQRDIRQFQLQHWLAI

[10] = molecular target: T9, BMX (Homo sapiens, UniProt P51813); test: Millipore kinase panel; type: biochemical; conditions: read-out: % Control
T9 construct: purchased Millipore KinaseProfiler (kinases); Cerep (receptors and ion channels)
T9 sequence (P51813 whole entry): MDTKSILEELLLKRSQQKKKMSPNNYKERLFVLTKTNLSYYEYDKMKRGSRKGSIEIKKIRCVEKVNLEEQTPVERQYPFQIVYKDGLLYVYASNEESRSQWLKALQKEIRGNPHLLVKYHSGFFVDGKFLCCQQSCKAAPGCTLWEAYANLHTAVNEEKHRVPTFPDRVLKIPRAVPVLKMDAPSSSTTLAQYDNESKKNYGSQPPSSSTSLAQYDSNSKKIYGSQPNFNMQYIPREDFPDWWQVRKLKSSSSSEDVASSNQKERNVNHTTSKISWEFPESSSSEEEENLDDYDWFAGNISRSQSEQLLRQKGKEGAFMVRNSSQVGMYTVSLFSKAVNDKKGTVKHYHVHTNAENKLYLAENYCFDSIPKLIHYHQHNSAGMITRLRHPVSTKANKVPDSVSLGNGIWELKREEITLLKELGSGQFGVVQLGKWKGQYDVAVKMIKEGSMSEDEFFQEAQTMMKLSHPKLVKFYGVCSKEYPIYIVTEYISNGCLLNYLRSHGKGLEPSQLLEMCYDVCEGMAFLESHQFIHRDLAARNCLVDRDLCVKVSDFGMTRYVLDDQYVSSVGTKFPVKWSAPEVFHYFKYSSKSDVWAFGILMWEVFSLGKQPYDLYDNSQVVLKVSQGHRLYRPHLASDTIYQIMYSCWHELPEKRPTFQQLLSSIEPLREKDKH

[11] = molecular target: T10, BRSK2 (Homo sapiens, UniProt Q8IWQ3); test: Millipore kinase panel; type: biochemical; conditions: read-out: % Control
T10 construct: purchased Millipore KinaseProfiler (kinases); Cerep (receptors and ion channels)

[12] = molecular target: T11, CAMKI (Homo sapiens, UniProt Q14012); test: Millipore kinase panel; type: biochemical; conditions: read-out: % Control
T11 construct: purchased Millipore KinaseProfiler (kinases); Cerep (receptors and ion channels)

[13] = molecular target: T12, DAPK2 (Homo sapiens, UniProt Q9UIK4); test: Millipore kinase panel; type: biochemical; conditions: read-out: % Control
T12 construct: purchased Millipore KinaseProfiler (kinases); Cerep (receptors and ion channels)

[14] = molecular target: T13, EPHA1 (Homo sapiens, UniProt P21709); test: Millipore kinase panel; type: biochemical; conditions: read-out: % Control
T13 construct: purchased Millipore KinaseProfiler (kinases); Cerep (receptors and ion channels)

[15] = molecular target: T14, EPHB1 (Homo sapiens, UniProt P54762); test: Millipore kinase panel; type: biochemical; conditions: read-out: % Control
T14 construct: purchased Millipore KinaseProfiler (kinases); Cerep (receptors and ion channels)

[16] = molecular target: T15, EPHB2 (Homo sapiens, UniProt P29323); test: Millipore kinase panel; type: biochemical; conditions: read-out: % Control
T15 construct: purchased Millipore KinaseProfiler (kinases); Cerep (receptors and ion channels)

[17] = molecular target: T16, EPHB3 (Homo sapiens, UniProt P54753); test: Millipore kinase panel; type: biochemical; conditions: read-out: % Control
T16 construct: purchased Millipore KinaseProfiler (kinases); Cerep (receptors and ion channels)
T16 sequence (P54753 34-998): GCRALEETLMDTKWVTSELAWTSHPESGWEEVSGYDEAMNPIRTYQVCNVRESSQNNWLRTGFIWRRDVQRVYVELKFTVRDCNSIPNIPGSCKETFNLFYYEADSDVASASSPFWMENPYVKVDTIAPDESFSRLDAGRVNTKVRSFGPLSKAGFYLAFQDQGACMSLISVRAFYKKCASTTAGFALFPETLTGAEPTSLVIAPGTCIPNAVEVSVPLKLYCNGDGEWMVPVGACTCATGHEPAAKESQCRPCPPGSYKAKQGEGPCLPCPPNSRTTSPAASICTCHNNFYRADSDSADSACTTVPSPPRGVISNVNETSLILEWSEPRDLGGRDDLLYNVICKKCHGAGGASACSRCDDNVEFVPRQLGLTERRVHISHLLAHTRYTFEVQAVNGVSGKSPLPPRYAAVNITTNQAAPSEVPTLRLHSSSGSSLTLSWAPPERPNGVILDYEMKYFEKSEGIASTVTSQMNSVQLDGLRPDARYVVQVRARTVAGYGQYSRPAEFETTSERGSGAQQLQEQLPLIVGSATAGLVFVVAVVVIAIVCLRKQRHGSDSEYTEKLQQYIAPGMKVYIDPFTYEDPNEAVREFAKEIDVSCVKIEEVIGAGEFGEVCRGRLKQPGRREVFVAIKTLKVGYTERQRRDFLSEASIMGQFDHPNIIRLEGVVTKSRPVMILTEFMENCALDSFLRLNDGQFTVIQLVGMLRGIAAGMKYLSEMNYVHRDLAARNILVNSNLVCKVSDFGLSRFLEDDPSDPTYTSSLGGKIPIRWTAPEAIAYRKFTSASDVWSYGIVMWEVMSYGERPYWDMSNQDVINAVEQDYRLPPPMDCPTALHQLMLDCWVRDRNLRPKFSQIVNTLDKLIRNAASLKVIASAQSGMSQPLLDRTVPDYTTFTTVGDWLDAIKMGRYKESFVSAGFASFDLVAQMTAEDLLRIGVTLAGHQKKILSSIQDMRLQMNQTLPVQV

[18] = molecular target: T17, EPHB4 (Homo sapiens, UniProt P54760); test: Millipore kinase panel; type: biochemical; conditions: read-out: % Control
T17 construct: purchased Millipore KinaseProfiler (kinases); Cerep (receptors and ion channels)

[19] = molecular target: T18, FLT4 (Homo sapiens, UniProt P35916); test: Millipore kinase panel; type: biochemical; conditions: read-out: % Control
T18 construct: purchased Millipore KinaseProfiler (kinases); Cerep (receptors and ion channels)

[20] = molecular target: T19, IRAK4 (Homo sapiens, UniProt Q9NWZ3); test: Millipore kinase panel; type: biochemical; conditions: read-out: % Control
T19 construct: purchased Millipore KinaseProfiler (kinases); Cerep (receptors and ion channels)
T19 sequence (Q9NWZ3 whole entry): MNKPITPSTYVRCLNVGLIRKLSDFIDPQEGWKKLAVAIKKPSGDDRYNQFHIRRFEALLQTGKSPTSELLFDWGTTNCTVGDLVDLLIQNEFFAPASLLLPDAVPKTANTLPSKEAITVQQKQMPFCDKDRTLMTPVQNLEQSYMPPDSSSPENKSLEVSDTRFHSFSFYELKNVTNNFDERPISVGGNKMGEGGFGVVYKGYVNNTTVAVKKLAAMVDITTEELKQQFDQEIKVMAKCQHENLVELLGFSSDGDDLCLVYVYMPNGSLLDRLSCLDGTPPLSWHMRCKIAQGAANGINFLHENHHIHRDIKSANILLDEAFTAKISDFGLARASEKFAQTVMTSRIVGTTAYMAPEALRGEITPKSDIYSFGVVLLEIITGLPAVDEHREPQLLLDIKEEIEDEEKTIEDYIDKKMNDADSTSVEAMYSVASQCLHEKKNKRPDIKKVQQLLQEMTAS

[21] = molecular target: T20, ITK (Homo sapiens, UniProt Q08881); test: Millipore kinase panel; type: biochemical; conditions: read-out: % Control
T20 construct: purchased Millipore KinaseProfiler (kinases); Cerep (receptors and ion channels)

[22] = molecular target: T21, JAK2 (Homo sapiens, UniProt O60674); test: Millipore kinase panel; type: biochemical; conditions: read-out: % Control
T21 construct: purchased Millipore KinaseProfiler (kinases); Cerep (receptors and ion channels)

[23] = molecular target: T22, MAPKAP-K2 (Homo sapiens, UniProt P49137); test: Millipore kinase panel; type: biochemical; conditions: read-out: % Control
T22 construct: purchased Millipore KinaseProfiler (kinases); Cerep (receptors and ion channels)

[24] = system: MKK4; test: Millipore kinase panel; type: biochemical; conditions: 1 μM, ATP at Km
[25] = molecular target: T23, MKK7BETA (Homo sapiens, UniProt O14733); test: Millipore kinase panel; type: biochemical; conditions: read-out: % Control
T23 construct: purchased Millipore KinaseProfiler (kinases); Cerep (receptors and ion channels)

[26] = molecular target: T24, MRCKALPHA (Homo sapiens, UniProt Q5VT25); test: Millipore kinase panel; type: biochemical; conditions: read-out: % Control
T24 construct: purchased Millipore KinaseProfiler (kinases); Cerep (receptors and ion channels)

[27] = molecular target: T25, MRCKBETA (Homo sapiens, UniProt Q9Y5S2); test: Millipore kinase panel; type: biochemical; conditions: read-out: % Control
T25 construct: purchased Millipore KinaseProfiler (kinases); Cerep (receptors and ion channels)

[28] = molecular target: T26, MST3 (Homo sapiens, UniProt Q9Y6E0); test: Millipore kinase panel; type: biochemical; conditions: read-out: % Control
T26 construct: purchased Millipore KinaseProfiler (kinases); Cerep (receptors and ion channels)

[29] = molecular target: T27, PKCMU (Homo sapiens, UniProt Q15139); test: Millipore kinase panel; type: biochemical; conditions: read-out: % Control
T27 construct: purchased Millipore KinaseProfiler (kinases); Cerep (receptors and ion channels)

[30] = molecular target: T28, PYK2 (Homo sapiens, UniProt Q14289); test: Millipore kinase panel; type: biochemical; conditions: read-out: % Control
T28 construct: purchased Millipore KinaseProfiler (kinases); Cerep (receptors and ion channels)

[31] = molecular target: T29, ROCK-I (Homo sapiens, UniProt Q13464); test: Millipore kinase panel; type: biochemical; conditions: read-out: % Control
T29 construct: purchased Millipore KinaseProfiler (kinases); Cerep (receptors and ion channels)

[32] = molecular target: T30, RSK2 (Homo sapiens, UniProt P51812); test: Millipore kinase panel; type: biochemical; conditions: read-out: % Control
T30 construct: purchased Millipore KinaseProfiler (kinases); Cerep (receptors and ion channels)
T30 sequence (P51812 whole entry): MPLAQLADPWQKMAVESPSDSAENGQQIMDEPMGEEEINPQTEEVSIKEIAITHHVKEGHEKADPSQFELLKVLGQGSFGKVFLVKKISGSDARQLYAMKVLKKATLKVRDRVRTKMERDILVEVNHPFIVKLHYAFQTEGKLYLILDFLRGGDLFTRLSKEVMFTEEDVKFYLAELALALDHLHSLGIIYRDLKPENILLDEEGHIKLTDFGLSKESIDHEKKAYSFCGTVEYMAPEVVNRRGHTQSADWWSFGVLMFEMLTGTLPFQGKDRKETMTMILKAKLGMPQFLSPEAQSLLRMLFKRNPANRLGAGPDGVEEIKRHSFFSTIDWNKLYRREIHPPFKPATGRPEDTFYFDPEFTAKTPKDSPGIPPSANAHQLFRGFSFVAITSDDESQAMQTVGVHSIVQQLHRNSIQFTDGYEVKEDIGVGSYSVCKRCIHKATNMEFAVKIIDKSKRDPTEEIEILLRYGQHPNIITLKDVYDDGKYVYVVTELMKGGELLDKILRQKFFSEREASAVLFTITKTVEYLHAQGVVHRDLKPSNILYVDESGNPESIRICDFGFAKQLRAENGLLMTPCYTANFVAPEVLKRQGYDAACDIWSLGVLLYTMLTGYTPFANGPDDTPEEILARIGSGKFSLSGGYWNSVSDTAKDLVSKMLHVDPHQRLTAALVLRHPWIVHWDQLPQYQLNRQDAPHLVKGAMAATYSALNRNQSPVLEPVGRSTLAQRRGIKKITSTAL

[33] = molecular target: T31, SGK (Homo sapiens, UniProt O00141); test: Millipore kinase panel; type: biochemical; conditions: read-out: % Control
T31 construct: purchased Millipore KinaseProfiler (kinases); Cerep (receptors and ion channels)

[34] = molecular target: T32, SGK2 (Homo sapiens, UniProt Q9HBY8); test: Millipore kinase panel; type: biochemical; conditions: read-out: % Control
T32 construct: purchased Millipore KinaseProfiler (kinases); Cerep (receptors and ion channels)

[35] = molecular target: T33, SNK (Homo sapiens, UniProt Q9NYY3); test: Millipore kinase panel; type: biochemical; conditions: read-out: % Control
T33 construct: purchased Millipore KinaseProfiler (kinases); Cerep (receptors and ion channels)
T33 sequence (Q9NYY3 whole entry): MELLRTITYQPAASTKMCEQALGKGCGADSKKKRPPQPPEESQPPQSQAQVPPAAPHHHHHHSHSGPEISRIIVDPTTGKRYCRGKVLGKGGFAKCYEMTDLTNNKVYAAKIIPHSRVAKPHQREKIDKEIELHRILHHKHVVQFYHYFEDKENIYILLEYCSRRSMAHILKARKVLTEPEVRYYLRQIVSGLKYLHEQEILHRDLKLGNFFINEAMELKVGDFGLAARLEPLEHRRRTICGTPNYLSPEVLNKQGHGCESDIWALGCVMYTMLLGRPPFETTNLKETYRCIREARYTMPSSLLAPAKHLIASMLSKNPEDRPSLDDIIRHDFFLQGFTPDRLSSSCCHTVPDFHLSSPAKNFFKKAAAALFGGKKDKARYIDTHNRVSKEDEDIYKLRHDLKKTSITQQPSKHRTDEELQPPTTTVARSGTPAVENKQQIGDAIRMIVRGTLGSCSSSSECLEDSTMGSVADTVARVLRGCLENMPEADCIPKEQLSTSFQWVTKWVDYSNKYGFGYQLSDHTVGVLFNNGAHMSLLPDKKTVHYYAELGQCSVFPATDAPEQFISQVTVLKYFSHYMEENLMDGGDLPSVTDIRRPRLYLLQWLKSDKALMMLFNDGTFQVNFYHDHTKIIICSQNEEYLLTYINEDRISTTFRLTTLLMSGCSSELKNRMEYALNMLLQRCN

[36] = molecular target: T34, TAK1 (Homo sapiens, UniProt O43318); test: Millipore kinase panel; type: biochemical; conditions: read-out: % Control
T34 construct: purchased Millipore KinaseProfiler (kinases); Cerep (receptors and ion channels)
T34 sequence (O43318 1-303 limits assumed): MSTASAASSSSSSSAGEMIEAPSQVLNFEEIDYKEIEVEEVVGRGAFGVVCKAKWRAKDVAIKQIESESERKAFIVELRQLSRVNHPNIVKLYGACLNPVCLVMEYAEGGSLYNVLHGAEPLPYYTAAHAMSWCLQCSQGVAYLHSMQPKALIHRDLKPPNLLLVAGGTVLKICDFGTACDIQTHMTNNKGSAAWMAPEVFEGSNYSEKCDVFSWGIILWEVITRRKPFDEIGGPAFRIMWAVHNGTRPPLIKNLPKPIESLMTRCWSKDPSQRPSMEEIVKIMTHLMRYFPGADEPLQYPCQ

[37] = molecular target: T35, ZIPK (Homo sapiens, UniProt O43293); test: Millipore kinase panel; type: biochemical; conditions: read-out: % Control
T35 construct: purchased Millipore KinaseProfiler (kinases); Cerep (receptors and ion channels)

[38] = molecular target: T36, GRK6 (Homo sapiens, UniProt P43250); test: Millipore kinase panel; type: biochemical; conditions: read-out: % Control
T36 construct: purchased Millipore KinaseProfiler (kinases); Cerep (receptors and ion channels)
T36 sequence (P43250 whole entry): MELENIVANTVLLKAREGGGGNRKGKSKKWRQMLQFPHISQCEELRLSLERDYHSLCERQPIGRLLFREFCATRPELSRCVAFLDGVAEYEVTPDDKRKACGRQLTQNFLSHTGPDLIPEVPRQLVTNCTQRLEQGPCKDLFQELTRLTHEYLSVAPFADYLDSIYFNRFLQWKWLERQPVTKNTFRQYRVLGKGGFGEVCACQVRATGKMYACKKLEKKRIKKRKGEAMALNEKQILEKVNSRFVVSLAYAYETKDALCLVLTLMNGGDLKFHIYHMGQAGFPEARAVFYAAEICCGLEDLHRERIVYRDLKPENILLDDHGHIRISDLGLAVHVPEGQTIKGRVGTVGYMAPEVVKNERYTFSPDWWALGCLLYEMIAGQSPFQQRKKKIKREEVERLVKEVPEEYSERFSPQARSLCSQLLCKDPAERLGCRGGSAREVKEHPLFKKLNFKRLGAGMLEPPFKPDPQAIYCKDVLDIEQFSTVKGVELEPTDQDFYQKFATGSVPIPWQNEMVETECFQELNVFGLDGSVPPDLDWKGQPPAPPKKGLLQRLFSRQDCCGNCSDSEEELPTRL

[39] = molecular target: T37, PHKGAMMA2 (Homo sapiens, UniProt P15735); test: Millipore kinase panel; type: biochemical; conditions: read-out: % Control
T37 construct: purchased Millipore KinaseProfiler (kinases); Cerep (receptors and ion channels)

[40] = molecular target: T38, TAO3 (Homo sapiens, UniProt Q9H2K8); test: Millipore kinase panel; type: biochemical; conditions: read-out: % Control
T38 construct: purchased Millipore KinaseProfiler (kinases); Cerep (receptors and ion channels)

[41] = molecular target: T39, TLK2 (Homo sapiens, UniProt Q86UE8); test: Millipore kinase panel; type: biochemical; conditions: read-out: % Control
T39 construct: purchased Millipore KinaseProfiler (kinases); Cerep (receptors and ion channels)

[42] = molecular target: T40, CLK2 (Homo sapiens, UniProt P49760); test: Millipore kinase panel; type: biochemical; conditions: read-out: % Control
T40 construct: purchased Millipore KinaseProfiler (kinases); Cerep (receptors and ion channels)

[43] = molecular target: T41, MTOR (Homo sapiens, UniProt P42345); test: Millipore kinase panel; type: biochemical; conditions: read-out: % Control
T41 construct: purchased Millipore KinaseProfiler (kinases); Cerep (receptors and ion channels)

[44] = molecular target: T42, AURKB (Homo sapiens, UniProt Q96GD4); test: Millipore kinase panel; type: biochemical; conditions: read-out: % Control
T42 construct: purchased Millipore KinaseProfiler (kinases); Cerep (receptors and ion channels)

Compound: O=C1NCCC12CCN(c1c(Cl)cncc1-c1ccc(N3CCOCC3)cc1)CC2 [Compound 44, 8-(3-Chloro-5-(4-morpholin-4-ylphenyl)pyridin-4-yl)-2,8-diazaspiro[4.5]decan-1-one]
- % Inhibition of Control Specific Binding [1]: -4%
- inhibition at 10 µM [2]: -2%
- inhibition at 10 µM [3]: 17%
- inhibition at 10 µM [4]: 47%
- inhibition at 10 µM [5]: -10%
- inhibition at 10 µM [6]: -4%
- inhibition at 10 µM [7]: 9%
- inhibition at 10 µM [8]: 0%
- inhibition at 10 µM [9]: -15%
- remaining activity at 1 µM [10]: -2%
- remaining activity at 1 µM [11]: 14%
- remaining activity at 1 µM [12]: -4%
- remaining activity at 1 µM [13]: 5%
- remaining activity at 1 µM [14]: -2%
- remaining activity at 1 µM [15]: -1%
- remaining activity at 1 µM [16]: -1%
- remaining activity at 1 µM [17]: 17%
- remaining activity at 1 µM [18]: 4%
- remaining activity at 1 µM [19]: -5%
- remaining activity at 1 µM [20]: 2%
- remaining activity at 1 µM [21]: 16%
- remaining activity at 1 µM [22]: 4%
- remaining activity at 1 µM [23]: 0%
- % Control [24]: 46%
- remaining activity at 1 µM [25]: 17%
- remaining activity at 1 µM [26]: 11%
- remaining activity at 1 µM [27]: 4%
- remaining activity at 1 µM [28]: 34%
- remaining activity at 1 µM [29]: -22%
- remaining activity at 1 µM [30]: -6%
- remaining activity at 1 µM [31]: -7%
- remaining activity at 1 µM [32]: 3%
- remaining activity at 1 µM [33]: 16%
- remaining activity at 1 µM [34]: -5%
- remaining activity at 1 µM [35]: -5%
- remaining activity at 1 µM [36]: -3%
- remaining activity at 1 µM [37]: -10%
- remaining activity at 1 µM [38]: -1%
- remaining activity at 1 µM [39]: 10%
- remaining activity at 1 µM [40]: -22%
- remaining activity at 1 µM [41]: -12%
- remaining activity at 1 µM [42]: -10%
- remaining activity at 1 µM [43]: 18%
- remaining activity at 1 µM [44]: -1%

Compound: Cn1cc(-c2ccc(-c3cncc(Cl)c3N3CCC4(CCNC4=O)CC3)cc2)cn1 [Compound 74, 8-(3-Chloro-5-(4-(1-methyl-1H-pyrazol-4-yl)phenyl)pyridin-4-yl)-2,8-diazaspiro[4.5]decan-1-one]
- % Inhibition of Control Specific Binding [1]: 8%
- inhibition at 10 µM [2]: -6%
- inhibition at 10 µM [3]: 34%
- inhibition at 10 µM [4]: 46%
- inhibition at 10 µM [5]: -7%
- inhibition at 10 µM [6]: 6%
- inhibition at 10 µM [7]: 1%
- inhibition at 10 µM [8]: 0%
- inhibition at 10 µM [9]: 14%
- remaining activity at 1 µM [10]: -2%
- remaining activity at 1 µM [11]: -4%
- remaining activity at 1 µM [12]: -12%
- remaining activity at 1 µM [13]: 13%
- remaining activity at 1 µM [14]: -2%
- remaining activity at 1 µM [15]: -7%
- remaining activity at 1 µM [16]: 7%
- remaining activity at 1 µM [17]: -2%
- remaining activity at 1 µM [18]: 10%
- remaining activity at 1 µM [19]: -23%
- remaining activity at 1 µM [20]: -3%
- remaining activity at 1 µM [21]: -3%
- remaining activity at 1 µM [22]: 11%
- remaining activity at 1 µM [23]: 0%
- % Control [24]: 13%
- remaining activity at 1 µM [25]: 68%
- remaining activity at 1 µM [26]: -4%
- remaining activity at 1 µM [27]: -4%
- remaining activity at 1 µM [28]: -7%
- remaining activity at 1 µM [29]: -1%
- remaining activity at 1 µM [30]: 5%
- remaining activity at 1 µM [31]: -1%
- remaining activity at 1 µM [32]: -12%
- remaining activity at 1 µM [33]: -4%
- remaining activity at 1 µM [34]: -17%
- remaining activity at 1 µM [35]: -1%
- remaining activity at 1 µM [36]: 6%
- remaining activity at 1 µM [37]: 6%
- remaining activity at 1 µM [38]: -1%
- remaining activity at 1 µM [39]: 4%
- remaining activity at 1 µM [40]: -24%
- remaining activity at 1 µM [41]: -9%
- remaining activity at 1 µM [42]: -19%
- remaining activity at 1 µM [43]: 7%
- remaining activity at 1 µM [44]: -8%
